Key:
Assay type in all cases: in vivo, Musa
bananas [1] = experiment: Example 2C: evaluation process C (22° C. after MCP); crown mold and crown rot; details: 7 days in bag at approx. 22° C., rating 0-3
From the text: Bananas may be inspected for the incidence of crown mold. Crown mold is observed and given a numerical rating as follows: 0 (apparently healthy and disease-free fruit); 1 (mycelia not easily detectable with naked eye, but obvious slight disease is visible on the crown); 2 (presence of some visible mycelia on the crown and moderate disease damage on the crown; 3 (clearly visible mycelia on the crown with severe disease damage on the crown).
Bananas may be inspected for the incidence of crown rot. When disease damage is apparent but no fungus is visible, crown rot is reported, with the degree of damage assessed as follows: 0 (apparently healthy and disease-free fruit); 1 (obvious slight disease is visible on the crown); 2 (moderate disease damage on the crown; 3 (severe disease damage on the crown).
(§1) Bananas were harvested at 13 weeks of age. Fruit bunches were separated into hands, then washed, and excess latex was removed in chlorinated water tanks using standard commercial practices. The washed hands of bananas were further broken into clusters and treated with fungicide. Clusters were placed into plastic bags; each bag held approximately 1.4 kg (3 lbs) of bananas. The bananas remained in these bags until they were removed for evaluation (see below).
(§2) At day 5 at approximately 4 pm, the bananas had reached color stage 2.5 to 3.5. Treatment groups PE-3-C, PE-10-C, MAP-3, and MAP-10 were then exposed to 1-MCP overnight at the concentrations shown above.
Some of the bananas from each group described in Example 2 were evaluated by process “C” as follows: After treatment groups PE-3-C, PE-10-C, MAP-3, and MAP-10 received exposure to 1-MCP, the bananas remained in their bags and were held at approximately 22° C. The bananas were inspected daily while they remained in the bags.
After 7 days at approximately 22° C., results were as follows: […]

bananas [2] = experiment: Example US-3: comparison of production batches of MAP
From the text: Bananas were harvested and shipped to Ephrata, Pa. as described in Example US-1 above. Upon arrival, bananas were removed from poly liners and placed into one of three types of bags: • (1) T-bags (as described above) • (2) MAP bags type M (as described above) • (3) MAP bags type D (as described above). Bananas in bags were exposed to the ripening cycle described above, except that the first day (“day 0”) of the ripening cycle was omitted. The bananas that were exposed to 1-MCP received that exposure when they were at color stage 2 to 2.2.
Additionally, a group of bananas remained in their bags at 17.8° C. for 17 days after exposure to 1-MCP and were evaluated at the end of those 17 days.

bananas [3] = experiment: Example 2B: evaluation process B (3 days post-MCP); details: MAP-3 and MAP-10 groups (MAP bag, 300 or 1000 ppb 1-MCP); 3 days in bag at 14° C.
From the text: as §1, §2
This Example was the same as Example 2A, except that after exposure to 1-MCP, the bananas remained in their bags in the holding room at 14° C. for 3 days instead of 4 days.

bananas [4] = experiment: Example US-5: various levels of 1-MCP; set-up: SS (sugar spots): scale not given here; details: 7 days
Description: Bananas were grown, shipped, and ripened as described in Example US-1. All bananas were in T-bags through the ripening cycle. At color stage 3.0 to 4.0, the bananas, still in T-bags, were placed in various airtight containers; in each container, a specified concentration of 1-MCP was released into the air; bananas remained in those containers for 12 hours. After that, half of each treatment group was transferred to MAP bags, and all bananas were placed into post-MCP storage as in US-1. At the end of 7 days, bananas were evaluated for sugar spots (SS), color stage (CS), and firmness (F). Firmness was measured with a Fruit Texture Analyzer (Güss Company, Republic of South Africa) using a probe of 8 mm diameter.

[5] = MAP-10: MAP bag, 1000 ppb 1-MCP
[6] = PE-10-C: PE bag, 1000 ppb 1-MCP
[7] = MAP with non-zero 1-MCP, 17 days in bags at 17.8° C., versus MAP without 1-MCP or T-bags with 1-MCP

For `CC1=CC1` [1-MCP, 1-methylcyclopropene], the “Crown Mold” value (bananas [1]; MAP-3: MAP bag, 300 ppb 1-MCP) was 1.04, the “Crown Rot” value (bananas [1]; MAP-3: MAP bag, 300 ppb 1-MCP) was 1.18 and the “Crown Mold” value (bananas [1]; [5]) was 1.00. The “Crown Rot” value (bananas [1]; [5]) was 1.18, the “Crown Mold” value (bananas [1]; PE-3-C: PE bag, 300 ppb 1-MCP) was 1.50 and the “Crown Rot” value (bananas [1]; PE-3-C: PE bag, 300 ppb 1-MCP) was 1.72. The “Crown Mold” value (bananas [1]; [6]) was 1.09, the “Crown Rot” value (bananas [1]; [6]) was 1.27 and the “development of sugar spots on holding at 17.8° C.” value (bananas [2]; MAP and non-zero 1-MCP) was “delayed the development of sugar spots”. For the same compound, the color-stage numbers (bananas [2]; [7]) was “lower color-stage numbers”, the “number of sugar spots” value (bananas [2]; [7]) was “lower number of sugar spots” and the “color and sugar spots versus comparative examples” value (bananas [3]) was “same type of improvements over the comparative examples as in Example 2A”. The “CS (color stage)” value (bananas [4]; MAP, 1 ppb 1-MCP) was 5.2, the “F (firmness)” value (bananas [4]; MAP, 1 ppb 1-MCP) was 0.584 kg and the “SS (sugar spots)” value (bananas [4]; MAP, 1 ppb 1-MCP) was 1.8. The “CS (color stage)” value (bananas [4]; MAP, 5 ppb 1-MCP) was 4.8, the “F (firmness)” value (bananas [4]; MAP, 5 ppb 1-MCP) was 0.602 kg and the “SS (sugar spots)” value (bananas [4]; MAP, 5 ppb 1-MCP) was 0.5. For the same compound, the “CS (color stage)” value (bananas [4]; MAP, 10 ppb 1-MCP) was 5.4, the “F (firmness)” value (bananas [4]; MAP, 10 ppb 1-MCP) was 0.599 kg and the “SS (sugar spots)” value (bananas [4]; MAP, 10 ppb 1-MCP) was 1.5. For the same compound, the “CS (color stage)” value (bananas [4]; MAP, 25 ppb 1-MCP) was 5.6, the “F (firmness)” value (bananas [4]; MAP, 25 ppb 1-MCP) was 0.603 kg and the “SS (sugar spots)” value (bananas [4]; MAP, 25 ppb 1-MCP) was 0.8. The “CS (color stage)” value (bananas [4]; MAP, 50 ppb 1-MCP) was 5.5, the “F (firmness)” value (bananas [4]; MAP, 50 ppb 1-MCP) was 0.593 kg and the “SS (sugar spots)” value (bananas [4]; MAP, 50 ppb 1-MCP) was 1.0. The “CS (color stage)” value (bananas [4]; MAP, 100 ppb 1-MCP) was 5.2, the “F (firmness)” value (bananas [4]; MAP, 100 ppb 1-MCP) was 0.581 kg and the “SS (sugar spots)” value (bananas [4]; MAP, 100 ppb 1-MCP) was 1.0. For the same compound, the “CS (color stage)” value (bananas [4]; MAP, 200 ppb 1-MCP) was 4.9, the “F (firmness)” value (bananas [4]; MAP, 200 ppb 1-MCP) was 0.592 kg and the “SS (sugar spots)” value (bananas [4]; MAP, 200 ppb 1-MCP) was 0.8. The “CS (color stage)” value (bananas [4]; MAP, 1000 ppb 1-MCP) was 6.2, the “F (firmness)” value (bananas [4]; MAP, 1000 ppb 1-MCP) was 0.617 kg and the “SS (sugar spots)” value (bananas [4]; MAP, 1000 ppb 1-MCP) was 1.8. The “CS (color stage)” value (bananas [4]; MAP, 5000 ppb 1-MCP) was 6.2, the “F (firmness)” value (bananas [4]; MAP, 5000 ppb 1-MCP) was 0.602 kg and the “SS (sugar spots)” value (bananas [4]; MAP, 5000 ppb 1-MCP) was 1.2. The “CS (color stage)” value (bananas [4]; MAP, 50000 ppb 1-MCP) was 5.6, the “F (firmness)” value (bananas [4]; MAP, 50000 ppb 1-MCP) was 0.585 kg and the “SS (sugar spots)” value (bananas [4]; MAP, 50000 ppb 1-MCP) was 2.5. The “CS (color stage)” value (bananas [4]; T-bag, 1 ppb 1-MCP) was 6.6, the “F (firmness)” value (bananas [4]; T-bag, 1 ppb 1-MCP) was 0.561 kg and the “SS (sugar spots)” value (bananas [4]; T-bag, 1 ppb 1-MCP) was 2.2. For the same compound, the “CS (color stage)” value (bananas [4]; T-bag, 5 ppb 1-MCP) was 6.6, the “F (firmness)” value (bananas [4]; T-bag, 5 ppb 1-MCP) was 0.571 kg and the “SS (sugar spots)” value (bananas [4]; T-bag, 5 ppb 1-MCP) was 2.8. For the same compound, the “CS (color stage)” value (bananas [4]; T-bag, 10 ppb 1-MCP) was 6.6, the “F (firmness)” value (bananas [4]; T-bag, 10 ppb 1-MCP) was 0.568 kg and the “SS (sugar spots)” value (bananas [4]; T-bag, 10 ppb 1-MCP) was 2.0. The “CS (color stage)” value (bananas [4]; T-bag, 25 ppb 1-MCP) was 6.2, the “F (firmness)” value (bananas [4]; T-bag, 25 ppb 1-MCP) was 0.576 kg and the “SS (sugar spots)” value (bananas [4]; T-bag, 25 ppb 1-MCP) was 2.5. For the same compound, the “CS (color stage)” value (bananas [4]; T-bag, 50 ppb 1-MCP) was 7.0, the “F (firmness)” value (bananas [4]; T-bag, 50 ppb 1-MCP) was 0.591 kg and the “SS (sugar spots)” value (bananas [4]; T-bag, 50 ppb 1-MCP) was 2.2. The “CS (color stage)” value (bananas [4]; T-bag, 100 ppb 1-MCP) was 7.0, the “F (firmness)” value (bananas [4]; T-bag, 100 ppb 1-MCP) was 0.571 kg and the “SS (sugar spots)” value (bananas [4]; T-bag, 100 ppb 1-MCP) was 2.5. The “CS (color stage)” value (bananas [4]; T-bag, 200 ppb 1-MCP) was 7.0, the “F (firmness)” value (bananas [4]; T-bag, 200 ppb 1-MCP) was 0.589 kg and the “SS (sugar spots)” value (bananas [4]; T-bag, 200 ppb 1-MCP) was 3.0. For the same compound, the “CS (color stage)” value (bananas [4]; T-bag, 1000 ppb 1-MCP) was 7.0, the “F (firmness)” value (bananas [4]; T-bag, 1000 ppb 1-MCP) was 0.601 kg and the “SS (sugar spots)” value (bananas [4]; T-bag, 1000 ppb 1-MCP) was 3.0. The “CS (color stage)” value (bananas [4]; T-bag, 5000 ppb 1-MCP) was 6.2, the “F (firmness)” value (bananas [4]; T-bag, 5000 ppb 1-MCP) was 0.579 kg and the “SS (sugar spots)” value (bananas [4]; T-bag, 5000 ppb 1-MCP) was 3.0. The “CS (color stage)” value (bananas [4]; T-bag, 50000 ppb 1-MCP) was 6.6, the “F (firmness)” value (bananas [4]; T-bag, 50000 ppb 1-MCP) was 0.563 kg and the “SS (sugar spots)” value (bananas [4]; T-bag, 50000 ppb 1-MCP) was 2.8.

— US9265268B2, “Method of handling bananas” (priority 2009, dated 2016)
